Measurements from US7786083B2, “Metastin derivatives and use thereof” (Takeda Pharmaceutical Company Limited, priority 2006, dated 2010).
*1 amine or outer side, *2 acyl side, *3 side chain or, on linkers, in order; H or OH if unused. Where a SMILES comes first, the peptide text is derived from it. Where no end group is shown, it is not given here. [ ]: non-standard residue; d: D form. Glyψ(E-CHCH)Leu = CC(C)C[C@H](/C=C/CN[*:1])C(=O)[*:2]; X2 = O=C(/C=C/[C@@H](O)[C@H](Cc1ccccc1)N[*:1])[*:2]; 2Nal = N[C@@H](Cc1ccc2ccccc2c1)C(=O)O; X1 = CC(C)C[C@H](CCCN[*:1])C(=O)[*:2]; Arg(Me) = CNC(=N)NCCC[C@H](N)C(=O)O; Dap(CONH2) = NC(=O)NC[C@H](N)C(=O)O; Ala(cPr) = N[C@@H](CC1CC1)C(=O)O; Hyp = O=C(O)[C@@H]1C[C@@H](O)CN1; 2Pal = N[C@@H](Cc1ccccn1)C(=O)O; 3Pal = N[C@@H](Cc1cccnc1)C(=O)O; Aad = N[C@@H](CCCC(=O)O)C(=O)O; Cha = N[C@@H](CC1CCCCC1)C(=O)O; Nva = CCC[C@H](N)C(=O)O

Tested on: metastin receptors
Assay: Measurement of agonist activity by assaying changes in intracellular calcium ion level (FLIPR, Fluo-4 NW)
Type: cell-based, human
Settings: specific activity of the EC50 of a test compound based on the EC50 of Metastin (45-54), metastin receptor expression CHO cells
How it was run: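 CHO/dhfr⁻ cells stably expressing human or rat metastin receptor, seeded 3×10^4/well for 24 h, loaded with Fluo-4 NW 30 min at 37 °C in HBSS with 0.1% BSA, 20 mM HEPES pH 7.4 and 1 mM probenecid. Compound-stimulated intracellular calcium change read on FLIPR.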

Compound: CNC(=N)NCCC[C@H](NC(=O)[C@H](CC1CC1)NC(=O)CNC(=O)[C@H](CC1CCCCC1)NC(=O)[C@@H](NC(=O)[C@H](CC(N)=O)NC(=O)[C@H](CCCCN)NC(=O)[C@@H](Cc1ccc(O)cc1)NC(C)=O)[C@@H](C)O)C(=O)N[C@@H](Cc1c[nH]c2ccccc12)C(N)=O [Compound No. 911, des(1)-Ac-[D-Tyr2,Lys3,Thr5,Cha6,Ala(cPr)8,Arg(Me)9,Trp10]MS10] (Ac-[dY]KNT[Cha]G[Ala(cPr)][Arg(Me)]W-NH2)
- Specific Activity: 0.7

Compound: CNC(=N)NCCC[C@H](NC(=O)[C@H](CC(C)C)NC(=O)CNC(=O)[C@H](Cc1ccccn1)NC(=O)[C@@H](NC(=O)[C@H](CC(N)=O)NC(=O)[C@@H]1C[C@@H](O)CN1C(=O)[C@@H](Cc1ccc(O)cc1)NC(C)=O)[C@@H](C)O)C(=O)N[C@@H](Cc1c[nH]c2ccccc12)C(N)=O [Compound No. 839, des(1)-Ac-[D-Tyr2,Hyp3,Thr5,Pya(2)6,Arg(Me)9,Trp10]MS10] (Ac-[dY][Hyp]NT[2Pal]GL[Arg(Me)]W-NH2)
- Specific Activity: 1.2

Compound: CNC(=N)NCCC[C@H](NC(=O)[C@@H](/C=C/CNC(=O)[C@H](Cc1ccccc1)NC(=O)[C@@H](NC(=O)[C@H](CNC(N)=O)NC(=O)[C@H](CCC(=O)O)NC(=O)[C@@H](Cc1ccc(O)cc1)NC(C)=O)[C@@H](C)O)CC(C)C)C(=O)N[C@@H](Cc1c[nH]c2ccccc12)C(N)=O [Compound No. 908, des(1)-Ac-[D-Tyr2,Glu3,Alb4,Thr5,Gly7Ψ((E)CH═CH)Leu8,Arg(Me)9,Trp10]MS10] (Ac-[dY]E[Dap(CONH2)]TF[Glyψ(E-CHCH)Leu][Arg(Me)]W-NH2)
- Specific Activity: 0.5

Compound: CNC(=N)NCCC[C@H](NC(=O)[C@H](CC(C)C)NC(=O)[C@H](C)NC(=O)[C@H](CC1CCCCC1)NC(=O)[C@@H](NC(=O)[C@H](CC(N)=O)NC(=O)[C@@H]1C[C@@H](O)CN1C(=O)[C@@H](Cc1ccc(O)cc1)NC(C)=O)[C@@H](C)O)C(=O)N[C@@H](Cc1c[nH]c2ccccc12)C(N)=O [Compound No. 823, des(1)-Ac-[D-Tyr2,Hyp3,Thr5,Cha6,Ala7,Arg(Me)9,Trp10]MS10] (Ac-[dY][Hyp]NT[Cha]AL[Arg(Me)]W-NH2)
- Specific Activity: 0.5

Compound: CNC(=N)NCCC[C@H](NC(=O)[C@H](CC(C)C)NC(=O)[C@H](COC)NC(=O)[C@H](Cc1ccccc1)NC(=O)[C@@H](NC(=O)[C@H](CC(N)=O)NC(=O)[C@@H]1C[C@@H](O)CN1C(=O)[C@@H](Cc1ccc(O)cc1)NC(C)=O)[C@@H](C)O)C(=O)N[C@@H](Cc1c[nH]c2ccccc12)C(N)=O [Compound No. 828, des(1)-Ac-[D-Tyr2,Hyp3,Thr5,Ser(Me)7,Arg(Me)9,Trp10]MS10] (Ac-[dY][Hyp]NTFS(Me)L[Arg(Me)]W-NH2)
- Specific Activity: 1.2

Compound: CNC(=N)NCCC[C@H](NC(=O)[C@H](CC1CC1)NC(=O)CNC(=O)[C@H](CC1CCCCC1)NC(=O)[C@@H](NC(=O)[C@H](CNC(N)=O)NC(=O)[C@@H]1C[C@@H](O)CN1C(=O)[C@@H](Cc1ccc(O)cc1)NC(C)=O)[C@@H](C)O)C(=O)N[C@@H](Cc1c[nH]c2ccccc12)C(N)=O [Compound No. 953, des(1)-Ac-[D-Tyr2,Hyp3,Alb4,Thr5,Cha6,Ala(cPr)8,Arg(Me)9,Trp10]MS10] (Ac-[dY][Hyp][Dap(CONH2)]T[Cha]G[Ala(cPr)][Arg(Me)]W-NH2)
- Specific Activity: 0.5

Compound: CNC(=N)NCCC[C@H](NC(=O)[C@H](CC(C)C)NC(=O)CNC(=O)[C@H](Cc1cccnc1)NC(=O)[C@@H](NC(=O)[C@H](CC(N)=O)NC(=O)[C@@H]1C[C@@H](O)CN1C(=O)[C@@H](Cc1ccc(O)cc1)NC(C)=O)[C@@H](C)O)C(=O)N[C@@H](Cc1c[nH]c2ccccc12)C(N)=O [Compound No. 848, des(1)-Ac-[D-Tyr2,Hyp3,Thr5,Pya(3)6,Arg(Me)9,Trp10]MS10] (Ac-[dY][Hyp]NT[3Pal]GL[Arg(Me)]W-NH2)
- Specific Activity: 0.9

Compound: CCC[C@H](NC(=O)CNC(=O)[C@H](Cc1ccccc1)NC(=O)[C@@H](NC(=O)[C@H](CC(N)=O)NC(=O)[C@@H]1C[C@@H](O)CN1C(=O)[C@@H](Cc1ccc(O)cc1)NC(C)=O)[C@@H](C)O)C(=O)N[C@@H](CCCNC(=N)NC)C(=O)N[C@@H](Cc1c[nH]c2ccccc12)C(N)=O [Compound No. 918, des(1)-Ac-[D-Tyr2,Hyp3,Thr5,Nva8,Arg(Me)9,Trp10]MS10] (Ac-[dY][Hyp]NTFG[Nva][Arg(Me)]W-NH2)
- Specific Activity: 0.7

Compound: CNC(=N)NCCC[C@H](NC(=O)[C@@H](/C=C/CNC(=O)[C@H](Cc1ccccc1)NC(=O)[C@@H](NC(=O)[C@H](CC(N)=O)NC(=O)[C@H](CCC(=O)O)NC(=O)[C@@H](Cc1ccc(O)cc1)NC(C)=O)[C@@H](C)O)CC(C)C)C(=O)N[C@@H](Cc1c[nH]c2ccccc12)C(N)=O [Compound No. 907, des(1)-Ac-[D-Tyr2,Glu3,Thr5,Gly7Ψ((E)CH═CH)Leu8,Arg(Me)9,Trp10]MS10] (Ac-[dY]ENTF[Glyψ(E-CHCH)Leu][Arg(Me)]W-NH2)
- Specific Activity: 0.6

Compound: CC(=O)N[C@H](Cc1ccc(O)cc1)C(=O)N1C[C@H](O)C[C@H]1C(=O)N[C@@H](CNC(N)=O)C(=O)N[C@H](C(=O)N[C@@H](CC1CCCCC1)C(=O)NCCC[C@@H](CC(C)C)C(=O)N[C@@H](CCCNC(=N)N)C(=O)N[C@@H](Cc1c[nH]c2ccccc12)C(N)=O)[C@@H](C)O [Compound No. 952, des(1)-Ac-[D-Tyr2,Hyp3,Alb4,Thr5,Cha6,Gly7Ψ(CH2CH2)Leu8,Trp10]MS10] (Ac-[dY][Hyp][Dap(CONH2)]T[Cha][X1]RW-NH2)
- Specific Activity: 1.3

Compound: CNC(=N)NCCC[C@H](NC(=O)[C@H](CC1CC1)NC(=O)CNC(=O)[C@H](CC1CCCCC1)NC(=O)[C@@H](NC(=O)[C@H](CC(N)=O)NC(=O)[C@H](CCCC(=O)O)NC(=O)[C@@H](Cc1ccc(O)cc1)NC(C)=O)[C@@H](C)O)C(=O)N[C@@H](Cc1c[nH]c2ccccc12)C(N)=O [Compound No. 910, des(1)-Ac-[D-Tyr2,Aad3,Thr5,Cha6,Ala(cPr)8,Arg(Me)9,Trp10]MS10] (Ac-[dY][Aad]NT[Cha]G[Ala(cPr)][Arg(Me)]W-NH2)
- Specific Activity: 1.1

Compound: CNC(=N)NCCC[C@H](NC(=O)[C@H](CC(C)C)NC(=O)CNC(=O)[C@H](CC1CCCCC1)NC(=O)[C@@H](NC(=O)[C@H](CC(N)=O)NC(=O)[C@H](CCC(=O)O)NC(=O)[C@@H](Cc1ccc(O)cc1)NC(C)=O)[C@@H](C)O)C(=O)N[C@@H](Cc1c[nH]c2ccccc12)C(N)=O [Compound No. 853, des(1)-Ac-[D-Tyr2,Glu3,Thr5,Cha6,Arg(Me)9,Trp10]MS10] (Ac-[dY]ENT[Cha]GL[Arg(Me)]W-NH2)
- Specific Activity: 0.6

Compound: CC(=O)N[C@H](Cc1ccc(O)cc1)C(=O)N[C@@H](CCC(=O)O)C(=O)N[C@@H](CC(N)=O)C(=O)N[C@H](C(=O)N[C@@H](CC1CCCCC1)C(=O)NCC(=O)N[C@@H](CC1CC1)C(=O)N[C@@H](CCCNC(=N)N)C(=O)N[C@@H](Cc1c[nH]c2ccccc12)C(N)=O)[C@@H](C)O [Compound No. 942, des(1)-Ac-[D-Tyr2,Glu3,Thr5,Cha6,Ala(cPr)8,Trp10]MS10] (Ac-[dY]ENT[Cha]G[Ala(cPr)]RW-NH2)
- Specific Activity: 0.4

Compound: CNC(=N)NCCC[C@H](NC(=O)[C@H](CC(C)C)NC(=O)CNC(=O)[C@H](Cc1ccccc1)NC(=O)[C@@H](NC(=O)[C@H](CC(N)=O)NC(=O)[C@H](CCC(=O)O)NC(=O)[C@@H](Cc1ccc(O)cc1)NC(C)=O)[C@@H](C)O)C(=O)N[C@@H](Cc1c[nH]c2ccccc12)C(N)=O [Compound No. 852, des(1)-Ac-[D-Tyr2,Glu3,Thr5,Arg(Me)9,Trp10]MS10] (Ac-[dY]ENTFGL[Arg(Me)]W-NH2)
- Specific Activity: 0.5

Compound: CNC(=N)NCCC[C@H](NC(=O)[C@H](COC)NC(=O)CNC(=O)[C@H](CC1CCCCC1)NC(=O)[C@@H](NC(=O)[C@H](CC(N)=O)NC(=O)[C@@H]1C[C@@H](O)CN1C(=O)[C@@H](Cc1ccc(O)cc1)NC(C)=O)[C@@H](C)O)C(=O)N[C@@H](Cc1c[nH]c2ccccc12)C(N)=O [Compound No. 920, des(1)-Ac-[D-Tyr2,Hyp3,Thr5,Cha6,Ser(Me)8,Arg(Me)9,Trp10]MS10] (Ac-[dY][Hyp]NT[Cha]GS(Me)[Arg(Me)]W-NH2)
- Specific Activity: 0.5

Compound: CC(=O)N[C@H](Cc1ccc(O)cc1)C(=O)N1C[C@H](O)C[C@H]1C(=O)N[C@@H](CC(N)=O)C(=O)N[C@H](C(=O)N[C@@H](Cc1ccccc1)C(=O)NC/C=C/[C@@H](CC(C)C)C(=O)N[C@@H](CCCNC(=N)N)C(=O)N[C@@H](Cc1c[nH]c2ccccc12)C(N)=O)[C@@H](C)O [Compound No. 925, des(1)-Ac-[D-Tyr2,Hyp3,Thr5,Gly7Ψ((E)CH═CH)Leu8,Trp10]MS10] (Ac-[dY][Hyp]NTF[Glyψ(E-CHCH)Leu]RW-NH2)
- Specific Activity: 0.4

Compound: CNC(=N)NCCC[C@H](NC(=O)[C@H](CC(C)C)NC(=O)/C=C/[C@@H](O)[C@H](Cc1ccccc1)NC(=O)[C@@H](NC(=O)[C@H](CC(N)=O)NC(=O)[C@@H]1C[C@@H](O)CN1C(=O)[C@@H](Cc1ccc(O)cc1)NC(C)=O)[C@@H](C)O)C(=O)N[C@@H](Cc1c[nH]c2ccccc12)C(N)=O [Compound No. 866, des(1)-Ac-[D-Tyr2,Hyp3,Thr5,Phe6Ψ((R)CHOH—(E)CH=)Gly7,Arg(Me)9,Trp10]MS10] (Ac-[dY][Hyp]NT[X2]L[Arg(Me)]W-NH2)
- Specific Activity: 1.4

Compound: CNC(=N)NCCC[C@H](NC(=O)[C@H](CC1CC1)NC(=O)CNC(=O)[C@H](CC1CCCCC1)NC(=O)[C@@H](NC(=O)[C@H](CC(N)=O)NC(=O)[C@H](CCC(=O)O)NC(=O)[C@@H](Cc1ccc(O)cc1)NC(C)=O)[C@@H](C)O)C(=O)N[C@@H](Cc1c[nH]c2ccccc12)C(N)=O [Compound No. 895, des(1)-Ac-[D-Tyr2,Glu3,Thr5,Cha6,Ala(cPr)8,Arg(Me)9,Trp10]MS10] (Ac-[dY]ENT[Cha]G[Ala(cPr)][Arg(Me)]W-NH2)
- Specific Activity: 0.4

Compound: des(1)-Ac-[D-Tyr2,Hyp3,Thr5,Nal(2)6,Arg(Me)9,Trp10]MS10 (Ac-[dY][Hyp]NT[2Nal]GL[Arg(Me)]W; ends and bridges not checked) [Compound No. 919]
- Specific Activity: 1.0
